# Reference: patent US20070010671A1, “Novel quinazoline derivatives and methods of treatment related to the use thereof” (priority 2003, published 2007)
# Target: MCH receptor (Homo sapiens, UniProt Q99705)
# Test: High throughput functional screening FLIPR/FDSS6000: inhibition of MCH-evoked intracellular Ca2+ changes
# Type: cell-based
# Conditions: class by percent of control at 10^-7 M or by IC50; read-out: class
# Summary of the method: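 Antagonism is measured as inhibition of the intracellular calcium rise triggered by 50 nM MCH in cells bearing a constitutively active, non-endogenous form of the receptor. Cells are dye-loaded with Fluo4-AM and exposed to compound for 3 min at 37° C before agonist addition.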
row,SMILES,IC50 [µM]
1,"CCc1ccc(NC(=O)N[C@H]2CC[C@@H](Nc3nc(N(C)C)c4ccccc4n3)CC2)cc1 [compound 31, N-(cis-4-{[4-(dimethylamino)quinazolin-2-yl]amino}cyclohexyl)-N′-(4-ethylphenyl)urea]",0.05 to 0.2
2,CCNC(=O)N[C@H]1CC[C@@H](Nc2nc(N(C)C)c3ccccc3n2)CC1 [compound 32],> 0.2
3,"CCc1cccc(C)c1NC(=O)N[C@H]1CC[C@@H](Nc2nc(N(C)C)c3ccccc3n2)CC1 [compound 33, N-(cis-4-{[4-(dimethylamino)quinazolin-2-yl]amino}cyclohexyl)-N′-(2-ethyl-6-methylphenyl)urea]",< 0.05
4,"CCOC(=O)C(CC(C)C)NC(=O)NC1CCC(Nc2nc(N(C)C)c3ccccc3n2)CC1 (stereo not drawn) [compound 34, ethyl N-{[(cis-4-{[4-(dimethylamino)quinazolin-2-yl]amino}cyclohexyl)amino]carbonyl}lucinate]",< 0.05
5,CN(C)c1nc(N[C@H]2CC[C@@H](NC(=O)Nc3ccc(F)c([N+](=O)[O-])c3)CC2)nc2ccccc12 [compound 35],> 0.2
6,"CN(C)c1nc(N[C@H]2CC[C@@H](NC(=O)Nc3ccc(F)cc3)CC2)nc2ccccc12 [compound 36, N-(cis-4-{[4-(dimethylamino)quinazolin-2-yl]amino}cyclohexyl)-N′-(4-fluorophenyl)urea]",< 0.05
7,CN(C)c1nc(N[C@H]2CC[C@@H](NC(=O)Nc3cccc(F)c3)CC2)nc2ccccc12 [compound 37],> 0.2
8,CN(C)c1nc(N[C@H]2CC[C@@H](NC(=O)Nc3ccccc3F)CC2)nc2ccccc12 [compound 38],> 0.2
9,CC(C)c1ccc(NC(=O)N[C@H]2CC[C@@H](Nc3nc(N(C)C)c4ccccc4n3)CC2)cc1 [compound 39],> 0.2
10,"C=C(C)c1cccc(C(C)(C)NC(=O)N[C@H]2CC[C@@H](Nc3nc(N(C)C)c4ccccc4n3)CC2)c1 [compound 40, N-(cis-4-{[4-(dimethylamino)quinazolin-2-yl]amino}cyclohexyl)-N′-[1-(3-isopropenylphenyl)-1-methylethyl]urea]",< 0.05
11,CC(C)NC(=O)N[C@H]1CC[C@@H](Nc2nc(N(C)C)c3ccccc3n2)CC1 [compound 42],> 0.2
12,"COc1ccc(NC(=O)N[C@H]2CC[C@@H](Nc3nc(N(C)C)c4ccccc4n3)CC2)cc1 [compound 43, N-(cis-4-{[4-(dimethylamino)quinazolin-2-yl]amino}cyclohexyl)-N′-(4-methoxyphenyl)urea]",0.05 to 0.2
13,Cc1ccc(NC(=O)N[C@H]2CC[C@@H](Nc3nc(N(C)C)c4ccccc4n3)CC2)c([N+](=O)[O-])c1 [compound 44],> 0.2
14,"COc1ccccc1NC(=O)N[C@H]1CC[C@@H](Nc2nc(N(C)C)c3ccccc3n2)CC1 [compound 45, N-(cis-4-{[4-(dimethylamino)quinazolin-2-yl]amino}cyclohexyl)-N′-(2-methoxyphenyl)urea]",0.05 to 0.2
15,"COc1cccc(NC(=O)N[C@H]2CC[C@@H](Nc3nc(N(C)C)c4ccccc4n3)CC2)c1 [compound 46, N-(cis-4-{[4-(dimethylamino)quinazolin-2-yl]amino}cyclohexyl)-N′-(3-methoxyphenyl)urea]",0.05 to 0.2
16,"CSc1ccc(NC(=O)N[C@H]2CC[C@@H](Nc3nc(N(C)C)c4ccccc4n3)CC2)cc1 [compound 47, N-(cis-4-{[4-(dimethylamino)quinazolin-2-yl]amino}cyclohexyl)-N′-[4-(methylthio)phenyl]urea]",< 0.05
17,"COc1ccc(CNC(=O)N[C@H]2CC[C@@H](Nc3nc(N(C)C)c4ccccc4n3)CC2)cc1 [compound 48, N-(cis-4-{[4-(dimethylamino)quinazolin-2-yl]amino}cyclohexyl)-N′-(4-methoxybenzyl)urea]",0.05 to 0.2
18,Cc1cccc(CNC(=O)N[C@H]2CC[C@@H](Nc3nc(N(C)C)c4ccccc4n3)CC2)c1 [compound 49],> 0.2
19,"CN(C)c1nc(N[C@H]2CC[C@@H](NC(=O)Nc3cccc4ccccc34)CC2)nc2ccccc12 [compound 50, N-(cis-4-{[4-(dimethylamino)quinazolin-2-yl]amino}cyclohexyl)-N′-1-napthylurea]",< 0.05
20,"CN(C)c1nc(N[C@H]2CC[C@@H](NC(=O)NC3C[C@H]3c3ccccc3)CC2)nc2ccccc12 (stereo partly drawn) [compound 51, N-(cis-4-{[4-(dimethylamino)quinazolin-2-yl]amino}cyclohexyl)-N′-[(2S)-2-phenylcyclopropyl]urea]",< 0.05
21,"CN(C)c1nc(N[C@H]2CC[C@@H](NC(=O)Nc3ccccc3)CC2)nc2ccccc12 [compound 52, N-(cis-4-{[4-(dimethylamino)quinazolin-2-yl]amino}cyclohexyl)-N′-phenylurea]",0.05 to 0.2
22,"CN(C)c1nc(N[C@H]2CC[C@@H](NC(=O)Nc3ccc(Oc4ccccc4)cc3)CC2)nc2ccccc12 [compound 53, N-(cis-4-{[4-(dimethylamino)quinazolin-2-yl]amino}cyclohexyl)-N′-(4-phenoxyphenyl)urea]",< 0.05

row,SMILES,IC50 [µM]
1,"CCCCCNC(=O)N[C@H]1CC[C@@H](Nc2nc(N(C)C)c3ccccc3n2)CC1 [compound 54, N-(cis-4-{[4-(dimethylamino)quinazolin-2-yl]amino}cyclohexyl)-N′-pentylurea]",< 0.05
2,"CN(C)c1nc(N[C@H]2CC[C@@H](NC(=O)Nc3ccccc3C(F)(F)F)CC2)nc2ccccc12 [compound 55, N-(cis-4-{[4-(dimethylamino)quinazolin-2-yl]amino}cyclohexyl)-N′-[2-(trifluoromethyl)phenyl]urea]",< 0.05
3,CN(C)c1nc(N[C@H]2CC[C@@H](NC(=O)Nc3cccc(C(F)(F)F)c3)CC2)nc2ccccc12 [compound 56],> 0.2
4,"Cc1ccc(NC(=O)N[C@H]2CC[C@@H](Nc3nc(N(C)C)c4ccccc4n3)CC2)cc1 [compound 57, N-(cis-4-{[4-(dimethylamino)quinazolin-2-yl]amino}cyclohexyl)-N′-(4-methylphenyl)urea]",0.05 to 0.2
5,"Cc1cc(C)c(NC(=O)N[C@H]2CC[C@@H](Nc3nc(N(C)C)c4ccccc4n3)CC2)c(C)c1 [compound 58, N-(cis-4-{[4-(dimethylamino)quinazolin-2-yl]amino}cyclohexyl)-N′-mesitylurea]",< 0.05
6,"Cc1cccc(NC(=O)N[C@H]2CC[C@@H](Nc3nc(N(C)C)c4ccccc4n3)CC2)c1 [compound 59, N-(cis-4-{[4-(dimethylamino)quinazolin-2-yl]amino}cyclohexyl)-N′-(3-methylphenyl)urea]",0.05 to 0.2
7,"Cc1ccccc1NC(=O)N[C@H]1CC[C@@H](Nc2nc(N(C)C)c3ccccc3n2)CC1 [compound 60, N-(cis-4-{[4-(dimethylamino)quinazolin-2-yl]amino}cyclohexyl)-N′-(2-methylphenyl)urea]",< 0.05
8,"CC(NC(=O)N[C@H]1CC[C@@H](Nc2nc(N(C)C)c3ccccc3n2)CC1)c1cccc2ccccc12 (stereo partly drawn) [compound 61, N-(cis-4-{[4-(dimethylamino)quinazolin-2-yl]amino}cyclohexyl)-N′-[1-(-napthyl)ethyl]urea]",< 0.05
9,"CN(C)c1nc(N[C@H]2CC[C@@H](NC(=O)Nc3c(Cl)cc(Cl)cc3Cl)CC2)nc2ccccc12 [compound 63, N-(cis-4-{[4-(dimethylamino)quinazolin-2-yl]amino}cyclohexyl)-N′-(2,4,6-trichlorophenyl)urea]",< 0.05
10,Cc1ccc(NC(=O)N[C@H]2CC[C@@H](Nc3nc(N(C)C)c4ccccc4n3)CC2)cc1Cl [compound 64],> 0.2
11,"CC(NC(=O)NC1CCC(Nc2nc(N(C)C)c3ccccc3n2)CC1)c1ccccc1 (stereo not shown) [compound 66, 1-[4-(4-Dimethylamino-quinazolin-2-ylamino)-cyclohexyl]-3-(1-phenyl-ethyl)-urea]",< 0.05
12,"CC(NC(=O)NC1CCC(Nc2nc(N(C)C)c3ccccc3n2)CC1)c1cccc2ccccc12 (stereo not shown) [compound 67, 1-[4-(4-Dimethylamino-quinazolin-2-ylamino)-cyclohexyl]-3-(1-napthalen-1-yl-ethyl)-urea]",0.05 to 0.2
13,CC(C)c1cccc(C(C)C)c1NC(=O)N[C@H]1CC[C@@H](Nc2nc(N(C)C)c3ccccc3n2)CC1 [compound 68],> 0.2
14,CN(C)c1nc(N[C@H]2CC[C@@H](NC(=O)Nc3ccccc3OC(F)F)CC2)nc2ccccc12 [compound 69],> 0.2
15,"COC(=O)c1ccccc1NC(=O)N[C@H]1CC[C@@H](Nc2nc(N(C)C)c3ccccc3n2)CC1 [compound 70, metyl 2-({[4(cis-4-{[-(dimethylamino)quinazolin-2-yl]amino}cyclohexyl)amino]carbonyl}amino)benzoate]",> 0.2
16,CSc1ccccc1NC(=O)N[C@H]1CC[C@@H](Nc2nc(N(C)C)c3ccccc3n2)CC1 [compound 71],0.05 to 0.2
17,"CN(C)c1nc(N[C@H]2CC[C@@H](NC(=O)Nc3c(Cl)c(Cl)cc(Cl)c3Cl)CC2)nc2ccccc12 [compound 72, N-(cis-4-{[4-(dimethylamino)quinazolin-2-yl]amino}cyclohexyl)-N′-(2,3,5,6-tetrachlorophenyl)urea]",< 0.05
18,"Cc1ccc([N+](=O)[O-])c(NC(=O)N[C@H]2CC[C@@H](Nc3nc(N(C)C)c4ccccc4n3)CC2)c1C [compound 73, N-(cis-4-{[4-(dimethylamino)quinazolin-2-yl]amino}cyclohexyl)-N′-(2,3-dimethyl-6-nitrophenyl)urea]",0.05 to 0.2
19,CN(C)c1nc(N[C@H]2CC[C@@H](NC(=O)Nc3cc(Cl)c(Cl)cc3Cl)CC2)nc2ccccc12 [compound 74],> 0.2
20,"CN(C)c1nc(N[C@H]2CC[C@@H](NC(=O)Nc3c(Br)cc(Br)cc3Br)CC2)nc2ccccc12 [compound 75, N-(cis-4-{[4-(dimethylamino)quinazolin-2-yl]amino}cyclohexyl)-N′-(2,4,6-tribromophenyl)urea]",< 0.05
21,"CN(C)c1nc(N[C@H]2CC[C@@H](NC(=O)Nc3c(F)cc(Br)cc3Br)CC2)nc2ccccc12 [compound 76, N-(2,4-dibromo-6-fluorophenyl)-N′-(cis-4-{[4-(dimethylamino)quinazolin-2-yl]amino}cyclohexyl)urea]",< 0.05
